Measured values taken from US20250230193A1, “CYCLIC COMPOUND HAVING SELECTIVE KRAS INHIBITORY EFFECT ON HRAS AND NRAS” (CHUGAI SEIYAKU KABUSHIKI KAISHA, priority 2022, published 2025).
*1 amine or outer side, *2 acyl side, *3 side chain or, on linkers, in order; H or OH if unused. Where a SMILES comes first, the peptide text is derived from it. Bridges are numbered along the chain shown (N, C = ends). [ ]: non-standard residue; d: D form. The star is where a group is joined. hPhe(3-Cl-4-CF3) = N[C@@H](CCc1ccc(C(F)(F)F)c(Cl)c1)C(=O)O; NPrPhe(4-CF3) = CCCN[C@@H](Cc1ccc(C(F)(F)F)cc1)C(=O)O; X34 = Cc1ccc(C[C@@H](C(=O)[*:2])N(CCC(C)C)[*:1])cc1; NMeGly(cPent) = CN[C@H](C(=O)O)C1CCCC1; Pro(4,4-F2) = O=C(O)[C@@H]1CC(F)(F)CN1; NMeD = CN[C@@H](CC(=O)O)C(=O)O; NMeL = CN[C@@H](CC(C)C)C(=O)O; NMeNva = CCC[C@H](NC)C(=O)O; Morpholide = C1CN(*)CCO1; NMeA = CN[C@@H](C)C(=O)O; Ac5c = NC1(C(=O)O)CCCC1; Aze = O=C(O)[C@@H]1CCN1; Ac4c = NC1(C(=O)O)CCC1; NPrGly = CCCNCC(=O)O; Sar = CNCC(=O)O

Legend:
[1] = target: GDP-bound NRAS wild-type protein (Homo sapiens, UniProt P01111); test: Binding to NRAS by surface plasmon resonance (SPR), Single Cycle Kinetics
Chain of GDP-bound NRAS wild-type protein (P01111 whole entry): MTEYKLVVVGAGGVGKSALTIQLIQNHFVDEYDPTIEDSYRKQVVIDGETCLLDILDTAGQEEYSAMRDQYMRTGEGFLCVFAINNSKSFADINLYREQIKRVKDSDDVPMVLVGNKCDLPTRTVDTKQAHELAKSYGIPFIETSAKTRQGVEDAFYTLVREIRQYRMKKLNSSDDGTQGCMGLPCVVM

[2] = target: GDP-bound HRAS wild-type protein (Homo sapiens, UniProt P01112); test: Binding to HRAS by surface plasmon resonance (SPR), Single Cycle Kinetics
Chain of GDP-bound HRAS wild-type protein (P01112 whole entry): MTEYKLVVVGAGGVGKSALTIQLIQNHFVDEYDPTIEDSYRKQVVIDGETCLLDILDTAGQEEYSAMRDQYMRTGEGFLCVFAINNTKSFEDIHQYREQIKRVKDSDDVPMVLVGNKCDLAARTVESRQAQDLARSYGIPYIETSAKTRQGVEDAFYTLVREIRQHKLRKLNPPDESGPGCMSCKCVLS

[3] = KD ratio, GDP-bound NRAS wild-type vs GDP-bound KRAS wild-type, SPR
[4] = KD ratio, GDP-bound HRAS wild-type vs GDP-bound KRAS wild-type, SPR

For CCCN1C(=O)CN(C)C(=O)CN(C)C(=O)[C@H]([C@@H](C)CC)NC(=O)[C@H](CC(C)C)N(C)C(=O)C[C@@H](C(=O)N2CCOCC2)N(C)C(=O)[C@H](C2CCCC2)N(C)C(=O)C2(CCCC2)NC(=O)[C@@H]2CC(F)(F)CN2C(=O)[C@H](CCc2ccc(C(F)(F)F)c(Cl)c2)NC(=O)CN(C)C(=O)[C@@H]1Cc1ccc(C(F)(F)F)cc1 [PP0195] ([NMeL]I[Sar][Sar][NPrPhe(4-CF3)][Sar][hPhe(3-Cl-4-CF3)][Pro(4,4-F2)][Ac5c][NMeGly(cPent)][NMeD]-Morpholide; lactam N-11), the “NRAS/KRAS (ratio of KD for GDP-bound NRAS wild-type to KD for KRAS)” value ([1]; SPR) was “B (a compound having 3 or more and less than 10 is denoted as B)” and the “HRAS/KRAS (ratio of KD for GDP-bound HRAS wild-type to KD for KRAS)” value ([2]; SPR) was “C (A compound having a KD ratio of 0.1 or more and less than 3 is denoted as C)”.
With CCC[C@H]1C(=O)N[C@@H]([C@@H](C)CC)C(=O)N(C)CC(=O)N(C)[C@H]2C/C=C\CCN(C2=O)[C@@H](Cc2ccc(C(F)(F)F)cc2)C(=O)N(C)CC(=O)N[C@@H](CCc2ccc(Cl)c(OC)c2)C(=O)N2C[C@H](OCC)C[C@H]2C(=O)NC2(CC(C)(C)C2)C(=O)N(C)[C@@H](C(CC)CC)C(=O)N(C)[C@H](C(=O)N(C)C)CC(=O)N1C [PP2789] the “NRAS/KRAS (ratio of KD value with respect to GDP-bound NRAS wild-type protein to KD value with respect to KRAS)” value ([1]; class symbols) was “AA (a compound having 20 or more is denoted as AA)” and the “HRAS/KRAS (ratio of KD value with respect to GDP-bound HRAS wild-type protein to KD value with respect to KRAS)” value ([2]; class symbols) was “A (a compound having 10 or more and less than 20 is denoted as A)”.
With CC[C@H](C)[C@@H]1NC(=O)[C@H](CC(C)C)N(C)C(=O)C[C@@H](C(=O)N2CCOCC2)N(C)C(=O)[C@H](C2CCCC2)N(C)C(=O)C2(CCCC2)NC(=O)[C@H](C)N(CC)C(=O)[C@H](CCc2cc(F)c(C(F)(F)F)c(F)c2)NC(=O)CN(C)C(=O)[C@H](Cc2ccc(C(F)(F)F)cc2)N2CCCCC[C@@H](C2=O)N(C)C(=O)CN(C)C1=O [PP0515] the “NRAS/KRAS (ratio of KD value with respect to GDP-bound NRAS wild-type protein to KD value with respect to KRAS)” value ([1]; SPR) was “B (a compound having 3 or more and less than 10 is denoted as B)” and the “HRAS/KRAS (ratio of KD value with respect to GDP-bound HRAS wild-type protein to KD value with respect to KRAS)” value ([2]; SPR) was “B (a compound having 3 or more and less than 10 is denoted as B)”.
CCC[C@H]1C(=O)N[C@@H]([C@@H](C)CC)C(=O)N(C)CC(=O)N(CCC)CC(=O)N(CCC)[C@@H](Cc2ccc(C(F)(F)F)cc2)C(=O)N(C)CC(=O)N[C@@H](CCc2ccc(C(F)(F)F)c(Cl)c2)C(=O)N2CCC[C@H]2C(=O)NC2(CCC2)C(=O)N(C)[C@@H](C2CCCC2)C(=O)N(C)[C@H](C(=O)N2CCOCC2)CC(=O)N1C [PP1949] ([NMeNva]I[Sar][NPrGly][NPrPhe(4-CF3)][Sar][hPhe(3-Cl-4-CF3)]P[Ac4c][NMeGly(cPent)][NMeD]-Morpholide; lactam N-11) was tested, and the “NRAS/KRAS (ratio of KD value for NRAS to KD value for KRAS)” value [1, 3] was “C (A compound having a KD ratio of 0.1 or more and less than 3 is denoted as C)” and the “HRAS/KRAS (ratio of KD value for HRAS to KD value for KRAS)” value [2, 4] was “C (A compound having a KD ratio of 0.1 or more and less than 3 is denoted as C)”.
In the case of CC[C@H](C)[C@@H]1NC(=O)[C@H](CC(C)C)N(C)C(=O)C[C@@H](C(=O)N2CCOCC2)N(C)C(=O)[C@H](C2CCCC2)N(C)C(=O)C2(CCCC2)NC(=O)[C@@H]2CCCN2C(=O)[C@H](CCc2ccc(C(F)(F)F)c(Cl)c2)NC(=O)CN(C)C(=O)[C@H](Cc2ccc(C)cc2)N(CCC(C)C)C(=O)[C@@H]2CCN2C(=O)[C@H](C)N(C)C1=O [PP0086] ([NMeL]I[NMeA][Aze][X34][Sar][hPhe(3-Cl-4-CF3)]P[Ac5c][NMeGly(cPent)][NMeD]-Morpholide; lactam N-11), the “NRAS/KRAS (ratio of KD for GDP-bound NRAS wild-type to KD for KRAS)” value ([1]; SPR) is reported as “C (A compound having a KD ratio of 0.1 or more and less than 3 is denoted as C)” and the “HRAS/KRAS (ratio of KD for GDP-bound HRAS wild-type to KD for KRAS)” value ([2]; SPR) is reported as “B (a compound having 3 or more and less than 10 is denoted as B)”.
In the case of CCC[C@H]1C(=O)N[C@@H]([C@@H](C)CC)C(=O)N(C)CC(=O)N(C)[C@H]2C/C=C\CCN(C2=O)[C@@H](Cc2ccc(C(F)(F)F)cc2)C(=O)N(C)CC(=O)N[C@@H](CCc2ccc3sc(F)c(C)c3c2)C(=O)N2C[C@H](OCC)C[C@H]2C(=O)NC2(CC(C)(C)C2)C(=O)N(C)[C@@H](C(CC)CC)C(=O)N(C)[C@H](C(=O)N(C)C)CC(=O)N1C [PP2892], the “NRAS/KRAS (ratio of KD value with respect to GDP-bound NRAS wild-type protein to KD value with respect to KRAS)” value ([1]; class symbols) is reported as “A (a compound having 10 or more and less than 20 is denoted as A)” and the “HRAS/KRAS (ratio of KD value with respect to GDP-bound HRAS wild-type protein to KD value with respect to KRAS)” value ([2]; class symbols) is reported as “A (a compound having 10 or more and less than 20 is denoted as A)”.
For CCCC[C@H]1C(=O)NC2(CCC2)C(=O)N(C)[C@@H](C2CCCC2)C(=O)N(C)[C@H](C(=O)N(C)C)CC(=O)N(C)[C@@H](CC)C(=O)N[C@@H]([C@@H](C)CC)C(=O)N(C)CC(=O)N(C)[C@H]2C/C=C\CCN(C2=O)[C@@H](Cc2ccc(C(F)(F)F)cc2)C(=O)N(C)CC(=O)N[C@@H](CCc2cc(F)c(C(F)(F)F)c(F)c2)C(=O)N1C [PP1150], the “NRAS/KRAS (ratio of KD value with respect to NRAS to KD value with respect to KRAS)” value [1, 3] was “AA (a compound having 20 or more is denoted as AA)” and the “HRAS/KRAS (ratio of KD value with respect to HRAS to KD value with respect to KRAS)” value [2, 4] was “A (a compound having 10 or more and less than 20 is denoted as A)”.
For CCCN1C(=O)[C@@H]2CCN2C(=O)[C@H](C)N(C)C(=O)[C@H]([C@@H](C)CC)NC(=O)[C@H](CC(C)C)N(C)C(=O)C[C@@H](C(=O)N2CCOCC2)N(C)C(=O)[C@H](C2CCCC2)N(C)C(=O)C2(CCCC2)NC(=O)[C@@H]2CCCN2C(=O)[C@H](CCc2ccc(C(F)(F)F)c(Cl)c2)NC(=O)CN(C)C(=O)[C@@H]1Cc1ccc(C(F)(F)F)cc1 [PP0053] ([NMeL]I[NMeA][Aze][NPrPhe(4-CF3)][Sar][hPhe(3-Cl-4-CF3)]P[Ac5c][NMeGly(cPent)][NMeD]-Morpholide; lactam N-11), the “NRAS/KRAS (ratio of KD for GDP-bound NRAS wild-type to KD for KRAS)” value ([1]; SPR) was “C (A compound having a KD ratio of 0.1 or more and less than 3 is denoted as C)” and the “HRAS/KRAS (ratio of KD for GDP-bound HRAS wild-type to KD for KRAS)” value ([2]; SPR) was “C (A compound having a KD ratio of 0.1 or more and less than 3 is denoted as C)”.
CCO[C@@H]1C[C@H]2C(=O)NC3(CCC3)C(=O)N(C)[C@@H](C3CCCC3)C(=O)N(C)[C@H](C(=O)N(CC)CC)CC(=O)N(C)[C@@H](C)C(=O)N[C@@H]([C@@H](C)CC)C(=O)N(C)CC(=O)N(C)[C@H]3C/C=C\CCN(C3=O)[C@@H](Cc3ccc(C(F)(F)F)cc3)C(=O)N(C)CC(=O)N[C@@H](CCc3cc(F)c(C(F)(F)F)c(F)c3)C(=O)N2C1 [PP1308] was tested, and the “NRAS/KRAS (ratio of KD value for GDP-bound NRAS wild-type protein to KD value for KRAS)” value ([1]; SPR, KD ratio class) was “A (a compound having 10 or more and less than 20 is denoted as A)” and the “HRAS/KRAS (ratio of KD value for GDP-bound HRAS wild-type protein to KD value for KRAS)” value ([2]; SPR, KD ratio class) was “A (a compound having 10 or more and less than 20 is denoted as A)”.
CC[C@H](C)[C@@H]1NC(=O)[C@H](CC)N(C)C(=O)C[C@@H](C(=O)N(C)C)N(C)C(=O)[C@H](C2CCCC2)N(C)C(=O)C2(CCC2)NC(=O)[C@@H]2CCN2C(=O)[C@H](CCc2cc(F)c(C(F)(F)F)c(F)c2)NC(=O)CN(C)C(=O)[C@H](Cc2ccc(C(F)(F)F)cc2)N2CCCC[C@@H](C2=O)N(C)C(=O)CN(C)C1=O [PP0657] was tested, and the “NRAS/KRAS (ratio of KD value with respect to GDP-bound NRAS wild-type protein to KD value with respect to KRAS)” value ([1]; SPR) was “B (a compound having 3 or more and less than 10 is denoted as B)” and the “HRAS/KRAS (ratio of KD value with respect to GDP-bound HRAS wild-type protein to KD value with respect to KRAS)” value ([2]; SPR) was “B (a compound having 3 or more and less than 10 is denoted as B)”.
